The values below come from PubChem BioAssay (NCI).

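All cell lines were grown in 96-well plates and treated with compound for 48 hours. Here, GI50 denotes the concentration required for 50% inhibition of growth. The concentration for full growth arrest is given as TGI.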 A value given as a limit tells only on which side of the number the result lay.

Some test systems named below: COLO 205 colon; EKVX NSCLC; HCT-116 colon; MOLT-4 leukemia; OVCAR-3 ovarian; OVCAR-4 ovarian; OVCAR-8 ovarian; SK-MEL-2 melanoma; SNB-75 CNS; SW-620 colon.
Common to all, as to assay: DTP human tumour cell line panel, 48 h

What is called GI50 is the concentration giving 50% growth inhibition. The term TGI denotes the concentration at which net growth stops. Low readings indicate greater sensitivity of the cells, high ones lower sensitivity of the cells. Take `S=C(Sc1ccc(Cl)cc1)Sc1ccc(Cl)cc1`: the GI50 in the experiment on COLO 205 colon is 2290 nM; with EKVX NSCLC it was 3.03 µM; in the experiment with HCT-116 colon, 1820 nM; in the experiment with MOLT-4 leukemia it was 1270 nM; in the experiment with OVCAR-3 ovarian, 1740 nM; in the experiment with OVCAR-4 ovarian it was 3.03 µM. Further, the GI50 in the experiment on OVCAR-8 ovarian is 3.66 µM; in the experiment on SK-MEL-2 melanoma, 4.61 µM; with SNB-75 CNS it was 3.5 µM; in the experiment with SW-620 colon, 1620 nM. In addition, the TGI came out at 5.5 µM in the experiment with COLO 205 colon; 13.6 µM with EKVX NSCLC; 3.53 µM in the experiment with HCT-116 colon; 4.53 µM with MOLT-4 leukemia; 3.12 µM in the experiment on OVCAR-3 ovarian; 10.9 µM in the experiment with OVCAR-4 ovarian. For the same molecule, the TGI in the experiment with OVCAR-8 ovarian stood at 12.6 µM; with SK-MEL-2 melanoma it was 16.7 µM; with SNB-75 CNS, 16.3 µM; in the experiment on SW-620 colon it was 3.01 µM.
Turning to `O=C(CI)NC(=O)NC(=O)NCc1ccccc1`, the GI50 with COLO 205 colon was 2130 nM; with EKVX NSCLC it was 17.5 µM; with HCT-116 colon, 3390 nM; with MOLT-4 leukemia, 969 nM; in the experiment with OVCAR-3 ovarian, 1820 nM; with OVCAR-4 ovarian, 4.42 µM. For the same molecule, the GI50 in the experiment on OVCAR-8 ovarian is 4.32 µM; in the experiment on SK-MEL-2 melanoma it was 7.5 µM; in the experiment on SNB-75 CNS, 11.3 µM; with SW-620 colon it was 1770 nM. In addition, the TGI in the experiment on COLO 205 colon was found to be 4.64 µM; in the experiment on EKVX NSCLC, 39.6 µM; with HCT-116 colon, 12.6 µM; in the experiment with MOLT-4 leukemia it was 3.15 µM; in the experiment on OVCAR-3 ovarian, 3.37 µM; in the experiment with OVCAR-4 ovarian it was 31 µM. Further, the TGI with OVCAR-8 ovarian amounted to 19.6 µM; in the experiment on SK-MEL-2 melanoma, 21.6 µM; with SNB-75 CNS, 29.2 µM; in the experiment on SW-620 colon, 3.78 µM.
With `COS(=O)c1cc(Cl)cc(Cl)c1OC(=O)CSSCC(=O)Oc1c(Cl)cc(Cl)cc1S(=O)OC` (stereo unspecified), the TGI with COLO 205 colon was found to be 44.8 µM; with EKVX NSCLC, 41.9 µM; in the experiment on MOLT-4 leukemia, 46.2 µM; in the experiment on OVCAR-3 ovarian, 86.4 µM; in the experiment with OVCAR-4 ovarian, 51.6 µM; with OVCAR-8 ovarian it was 61.9 µM. The TGI in the experiment with SK-MEL-2 melanoma is 51.4 µM; with SNB-75 CNS it was 80.1 µM; in the experiment on SW-620 colon, 58.4 µM.
As to `CCc1ccc(Oc2c(-c3ccc(OCc4ccc(Cl)cc4)cc3O)nn(C)c2C(F)(F)F)cc1`, the GI50 in the experiment on COLO 205 colon was 457 nM; in the experiment on EKVX NSCLC, 1.03 µM; in the experiment on HCT-116 colon, 259 nM; in the experiment with MOLT-4 leukemia, 565 nM; in the experiment on OVCAR-3 ovarian, 334 nM; with OVCAR-4 ovarian it was 0.547 µM. In addition, the GI50 with OVCAR-8 ovarian was 1.35 µM; in the experiment with SK-MEL-2 melanoma, 1.02 µM; in the experiment with SNB-75 CNS, 1.34 µM; with SW-620 colon it was 382 nM. Further, the TGI with COLO 205 colon amounted to 1.73 µM; in the experiment on EKVX NSCLC it was 2.98 µM; in the experiment on HCT-116 colon it was 1.1 µM; with MOLT-4 leukemia it was 2.93 µM; in the experiment on OVCAR-3 ovarian, 1.13 µM; with OVCAR-4 ovarian it was 2.33 µM. For the same molecule, the total growth inhibition concentration (TGI) was 3.79 µM in the experiment with OVCAR-8 ovarian, 2.63 µM in the experiment on SK-MEL-2 melanoma, 4.49 µM with SNB-75 CNS and 1.76 µM in the experiment with SW-620 colon.
As for `COc1cc2c(c3c1c(=O)c1ccccc1n3C)C=C([N+](=O)[O-])C(C)(C)O2`, the TGI with EKVX NSCLC, in the experiment on HCT-116 colon, in the experiment with MOLT-4 leukemia, with OVCAR-3 ovarian, in the experiment with OVCAR-4 ovarian and with OVCAR-8 ovarian was > 100 µM in each case. Besides, the TGI in the experiment on SNB-75 CNS was > 100 µM.
With `CCN(CC)CCCC(Nc1c2ccc(Cl)cc2nc2ccc(OC)cc12)c1ccc(Cl)cc1` (stereo unspecified), the GI50 with COLO 205 colon is 1310 nM; in the experiment on EKVX NSCLC, 1.35 µM; with MOLT-4 leukemia, 761 nM; with OVCAR-3 ovarian it was 1220 nM; with OVCAR-4 ovarian it was 1.13 µM; in the experiment with OVCAR-8 ovarian, 1.05 µM. The GI50 in the experiment on SK-MEL-2 melanoma was 1.89 µM; with SNB-75 CNS, 1.16 µM; with SW-620 colon, 1370 nM. In addition, the TGI with COLO 205 colon stood at 2.87 µM; in the experiment with EKVX NSCLC it was 2.96 µM; with MOLT-4 leukemia it was 2.3 µM; in the experiment with OVCAR-3 ovarian it was 2.75 µM; with OVCAR-4 ovarian it was 3.17 µM; with OVCAR-8 ovarian it was 2.47 µM. The concentration for total growth inhibition (TGI) in the experiment on SK-MEL-2 melanoma came to 3.63 µM; in the experiment on SNB-75 CNS it was 2.44 µM; with SW-620 colon, 2.99 µM.
Consider `O=C1c2cccc3c(N4CCOCC4)ccc(c23)C(=O)N1CCN1CCN(CCCCCN2CCN(CCN3C(=O)c4cccc5c(N6CCOCC6)ccc(c45)C3=O)CC2)CC1`, for which the GI50 is 46100 nM in the experiment with COLO 205 colon; > 100 µM in the experiment with EKVX NSCLC; 33800 nM in the experiment on HCT-116 colon; 84500 nM in the experiment on OVCAR-3 ovarian; > 100 µM with OVCAR-4 ovarian; 91 µM in the experiment with OVCAR-8 ovarian. Besides, the figures for the GI50 in the experiment with SNB-75 CNS and in the experiment on SW-620 colon were > 100 µM and 70800 nM, respectively. Also, the TGI in the experiment with COLO 205 colon, with EKVX NSCLC, in the experiment on HCT-116 colon, in the experiment with OVCAR-3 ovarian, with OVCAR-4 ovarian and in the experiment on OVCAR-8 ovarian was > 100 µM each time. The TGI with SNB-75 CNS and in the experiment on SW-620 colon was > 100 µM in each case.
With `Cc1ccc(-n2nc(C(OC3OC(CO)C(O)C(O)C3O)C(O)CO)c3nc4cc(C)c(C)cc4nc32)cc1` (stereo unspecified), the TGI in the experiment with EKVX NSCLC, in the experiment on HCT-116 colon, in the experiment on MOLT-4 leukemia, in the experiment with OVCAR-3 ovarian, in the experiment on OVCAR-4 ovarian and with OVCAR-8 ovarian was > 100 µM each time. In addition, in the experiment with SNB-75 CNS, the TGI is > 100 µM.
As for `O=C1C2C(C(=O)N1Cc1ccccc1)N(Cc1ccccc1)C(=O)N2Cc1ccccc1` (stereo unspecified), the TGI in the experiment on COLO 205 colon, with EKVX NSCLC, with HCT-116 colon, in the experiment on MOLT-4 leukemia, with OVCAR-3 ovarian and in the experiment with OVCAR-4 ovarian was > 100 µM in each case. Besides, the TGI with OVCAR-8 ovarian, with SNB-75 CNS and in the experiment with SW-620 colon was > 100 µM in each case.
